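Tested at 5 concentrations; 48 h exposure; 96-well plates; endpoints linearly interpolated, else capped at highest concentration. Definition used: TGI = concentration required for complete inhibition of growth.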
Tests used:
Test in all cases: growth of human tumour cells (NCI), 48 h
NCI-H226 lung = system: NCI-H226 lung
M14 melanoma = system: M14 melanoma
T-47D breast = system: T-47D breast
NCI/ADR-RES ovarian = system: NCI/ADR-RES ovarian
EKVX NSCLC = system: EKVX NSCLC
RXF 393 renal = system: RXF 393 renal
SW-620 colon = system: SW-620 colon
U251 CNS = system: U251 CNS
HT29 colon = system: HT29 colon
HOP-92 NSCLC = system: HOP-92 NSCLC

Structure (SMILES): O=C(NC/C=C/Br)NC1CCNc2ccccc21 (centres undefined)
- TGI (NCI-H226 lung): > 100 µM
- TGI (M14 melanoma): 34.5 µM
- TGI (T-47D breast): 93.9 µM
- TGI (NCI/ADR-RES ovarian): 99.7 µM
- TGI (EKVX NSCLC): 92.6 µM
- TGI (RXF 393 renal): > 100 µM
- TGI (SW-620 colon): > 100 µM
- TGI (U251 CNS): > 100 µM
- TGI (HT29 colon): 31.2 µM

Structure (SMILES): CC(=O)[C@H]1CCC2[C@@H]3CC=C4C(O)C(OS(=O)(=O)O)CC[C@]4(C)C3CC[C@@]21C (some centres undefined)
- TGI (NCI-H226 lung): > 100 µM
- TGI (NCI/ADR-RES ovarian): > 100 µM
- TGI (EKVX NSCLC): > 100 µM
- TGI (RXF 393 renal): > 100 µM
- TGI (SW-620 colon): > 100 µM
- TGI (U251 CNS): > 100 µM
- TGI (HT29 colon): > 100 µM
- TGI (HOP-92 NSCLC): > 100 µM

Structure (SMILES): CC(C)c1nccn1Cc1ccc(Cl)cc1Cl
- TGI (NCI-H226 lung): 93.5 µM
- TGI (M14 melanoma): > 100 µM
- TGI (NCI/ADR-RES ovarian): > 100 µM
- TGI (EKVX NSCLC): > 100 µM
- TGI (SW-620 colon): > 100 µM
- TGI (U251 CNS): > 100 µM
- TGI (HT29 colon): > 100 µM
- TGI (HOP-92 NSCLC): > 100 µM

Structure (SMILES): CCOC(=O)C[n+]1ccc2c([nH]c3cc(OC)ccc32)c1C
- TGI (NCI-H226 lung): > 100 µM
- TGI (NCI/ADR-RES ovarian): > 100 µM
- TGI (EKVX NSCLC): > 100 µM
- TGI (RXF 393 renal): > 100 µM
- TGI (SW-620 colon): > 100 µM
- TGI (U251 CNS): > 100 µM
- TGI (HT29 colon): > 100 µM
- TGI (HOP-92 NSCLC): > 100 µM

Structure (SMILES): Cc1cccc(C(O)c2cccnc2)c1O (centres undefined)
- TGI (NCI-H226 lung): > 100 µM
- TGI (T-47D breast): > 100 µM
- TGI (NCI/ADR-RES ovarian): > 100 µM
- TGI (EKVX NSCLC): > 100 µM
- TGI (RXF 393 renal): > 100 µM
- TGI (SW-620 colon): > 100 µM
- TGI (U251 CNS): > 100 µM
- TGI (HT29 colon): > 100 µM

Structure (SMILES): CC1(C)CC2(C)OC(=N)C1(C#N)C2(C#N)C#N (centres undefined)
- TGI (M14 melanoma): 23.8 µM
- TGI (T-47D breast): 37.7 µM
- TGI (NCI/ADR-RES ovarian): 29.5 µM
- TGI (EKVX NSCLC): 19.4 µM
- TGI (RXF 393 renal): 27.2 µM
- TGI (SW-620 colon): 11.1 µM
- TGI (U251 CNS): 29.3 µM
- TGI (HT29 colon): 13.4 µM
- TGI (HOP-92 NSCLC): 10.5 µM

Structure (SMILES): O=c1c(-c2ccc(O)cc2)coc2cc(O)cc(O)c12
- TGI (NCI-H226 lung): > 100 µM
- TGI (M14 melanoma): > 100 µM
- TGI (T-47D breast): > 100 µM
- TGI (NCI/ADR-RES ovarian): > 100 µM
- TGI (EKVX NSCLC): > 100 µM
- TGI (SW-620 colon): > 100 µM
- TGI (U251 CNS): > 100 µM
- TGI (HT29 colon): > 100 µM
- TGI (HOP-92 NSCLC): > 100 µM

Structure (SMILES): COc1ccccc1N1C(=O)/C(=C\c2cccc(Oc3ccccc3)c2)S(=O)(=O)C1c1ccccc1 (centres undefined)
- TGI (NCI-H226 lung): > 100 µM
- TGI (M14 melanoma): > 100 µM
- TGI (T-47D breast): > 100 µM
- TGI (NCI/ADR-RES ovarian): 67.6 µM
- TGI (EKVX NSCLC): > 100 µM
- TGI (RXF 393 renal): > 100 µM
- TGI (SW-620 colon): > 100 µM
- TGI (U251 CNS): > 100 µM
- TGI (HOP-92 NSCLC): > 100 µM

Structure (SMILES): CCOC(=O)c1c(-c2ccc(OC)c(O)c2)c(C#N)c(=S)n(C2OC(CO)C(O)C(O)C2O)c1-c1ccccc1 (centres undefined)
- TGI (NCI-H226 lung): > 100 µM
- TGI (M14 melanoma): > 100 µM
- TGI (NCI/ADR-RES ovarian): > 100 µM
- TGI (EKVX NSCLC): > 100 µM
- TGI (RXF 393 renal): > 100 µM
- TGI (SW-620 colon): > 100 µM
- TGI (U251 CNS): > 100 µM
- TGI (HT29 colon): > 100 µM

Structure (SMILES): Cc1cc(C)c2c(c1)CC1(Cc3c(C)cc(C)cc3C1=O)C2=O (centres undefined)
- TGI (NCI-H226 lung): > 100 µM
- TGI (M14 melanoma): > 100 µM
- TGI (NCI/ADR-RES ovarian): > 100 µM
- TGI (EKVX NSCLC): > 100 µM
- TGI (RXF 393 renal): > 100 µM
- TGI (SW-620 colon): > 100 µM
- TGI (U251 CNS): > 100 µM
- TGI (HOP-92 NSCLC): > 100 µM

Structure (SMILES): O=C1OC2C=CC1C1(CCOC1=O)C2 (centres undefined)
- TGI (NCI-H226 lung): > 100 µM
- TGI (M14 melanoma): > 100 µM
- TGI (EKVX NSCLC): > 100 µM
- TGI (SW-620 colon): > 100 µM
- TGI (U251 CNS): > 100 µM
- TGI (HOP-92 NSCLC): > 100 µM

Structure (SMILES): C[n+]1c(-c2ccc(/C=N/Nc3ccnc(N/N=C/c4ccc(-c5cn6ccccc6[n+]5C)cc4)n3)cc2)cn2ccccc21
- TGI (M14 melanoma): > 100 µM
- TGI (T-47D breast): > 100 µM
- TGI (NCI/ADR-RES ovarian): > 100 µM
- TGI (EKVX NSCLC): > 100 µM
- TGI (SW-620 colon): > 100 µM
- TGI (HT29 colon): > 100 µM

Structure (SMILES): COc1cc(-c2[o+]c3cc(O)cc(OC4OC(CO)C(O)C(O)C4O)c3cc2OC2OC(CO)C(O)C(O)C2O)cc(OC)c1O (centres undefined)
- TGI (NCI-H226 lung): > 100 µM
- TGI (M14 melanoma): > 100 µM
- TGI (T-47D breast): > 100 µM
- TGI (EKVX NSCLC): > 100 µM
- TGI (RXF 393 renal): > 100 µM
- TGI (SW-620 colon): > 100 µM
- TGI (U251 CNS): > 100 µM
- TGI (HT29 colon): > 100 µM
- TGI (HOP-92 NSCLC): > 100 µM

Structure (SMILES): C=C1C(=O)O[C@H]2[C@H]([C@H](C)CCCC(C)=O)O[C@H]([C@@]3(C)CCC(=O)O3)C[C@@H]12
- TGI (NCI-H226 lung): 80.5 µM
- TGI (M14 melanoma): > 100 µM
- TGI (T-47D breast): > 100 µM
- TGI (NCI/ADR-RES ovarian): > 100 µM
- TGI (EKVX NSCLC): > 100 µM
- TGI (SW-620 colon): > 100 µM
- TGI (U251 CNS): > 100 µM
- TGI (HT29 colon): > 100 µM
- TGI (HOP-92 NSCLC): > 100 µM

Structure (SMILES): CC1(C)O[C@@H](CP(c2cccc3ccccc23)c2cccc3ccccc23)[C@H](CP(c2cccc3ccccc23)c2cccc3ccccc23)O1
- TGI (NCI-H226 lung): > 100 µM
- TGI (M14 melanoma): > 100 µM
- TGI (T-47D breast): > 100 µM
- TGI (NCI/ADR-RES ovarian): > 100 µM
- TGI (EKVX NSCLC): > 100 µM
- TGI (RXF 393 renal): > 100 µM
- TGI (SW-620 colon): > 100 µM
- TGI (U251 CNS): > 100 µM
- TGI (HT29 colon): > 100 µM

Structure (SMILES): O=C(Nc1nc(C23CC4CC(CC(C4)C2)C3)cs1)c1cc2cc([N+](=O)[O-])ccc2oc1=O
- TGI (NCI-H226 lung): > 100 µM
- TGI (NCI/ADR-RES ovarian): > 100 µM
- TGI (EKVX NSCLC): > 100 µM
- TGI (RXF 393 renal): 74.8 µM
- TGI (SW-620 colon): > 100 µM
- TGI (U251 CNS): > 100 µM
- TGI (HT29 colon): > 100 µM
- TGI (HOP-92 NSCLC): > 100 µM

Structure (SMILES): Oc1ccc2ccccc2c1OCc1nnc(CCCCCCCCc2nnc(COc3c(O)ccc4ccccc34)o2)o1
- TGI (NCI-H226 lung): > 100 µM
- TGI (M14 melanoma): > 100 µM
- TGI (NCI/ADR-RES ovarian): > 100 µM
- TGI (EKVX NSCLC): > 100 µM
- TGI (RXF 393 renal): > 100 µM
- TGI (SW-620 colon): > 100 µM
- TGI (U251 CNS): > 100 µM
- TGI (HT29 colon): > 100 µM
- TGI (HOP-92 NSCLC): > 100 µM

Structure (SMILES): O=C(NCc1ccccc1)c1c(O)c2ccccc2[nH]c1=O
- TGI (NCI-H226 lung): > 100 µM
- TGI (NCI/ADR-RES ovarian): > 100 µM
- TGI (EKVX NSCLC): > 100 µM
- TGI (RXF 393 renal): > 100 µM
- TGI (SW-620 colon): > 100 µM
- TGI (U251 CNS): > 100 µM
- TGI (HT29 colon): > 100 µM
- TGI (HOP-92 NSCLC): > 100 µM

Structure (SMILES): Cc1nnc(CC#N)n1NC(=O)CC#N
- TGI (M14 melanoma): > 100 µM
- TGI (T-47D breast): > 100 µM
- TGI (NCI/ADR-RES ovarian): > 100 µM
- TGI (EKVX NSCLC): > 100 µM
- TGI (RXF 393 renal): > 100 µM
- TGI (SW-620 colon): > 100 µM
- TGI (U251 CNS): > 100 µM
- TGI (HT29 colon): > 100 µM
- TGI (HOP-92 NSCLC): > 100 µM

Structure (SMILES): CN(CCN(C)C(=O)CCn1ccc(=O)[nH]c1=O)C(=O)CCn1ccc(=O)[nH]c1=O
- TGI (NCI-H226 lung): > 100 µM
- TGI (M14 melanoma): > 100 µM
- TGI (EKVX NSCLC): > 100 µM
- TGI (RXF 393 renal): > 100 µM
- TGI (SW-620 colon): > 100 µM
- TGI (U251 CNS): > 100 µM
- TGI (HT29 colon): > 100 µM

Structure (SMILES): O=C(O)CCCc1ccc2c(c1)CC1(C2)Cc2ccc(CCCC(=O)O)cc2C1
- TGI (NCI-H226 lung): > 100 µM
- TGI (M14 melanoma): > 100 µM
- TGI (T-47D breast): > 100 µM
- TGI (NCI/ADR-RES ovarian): > 100 µM
- TGI (EKVX NSCLC): > 100 µM
- TGI (RXF 393 renal): > 100 µM
- TGI (U251 CNS): > 100 µM
- TGI (HT29 colon): > 100 µM
- TGI (HOP-92 NSCLC): > 100 µM

Structure (SMILES): CCCCCCc1cn([C@H]2C[C@H](O)[C@@H](CO)O2)c(=O)[nH]c1=O
- TGI (NCI-H226 lung): > 100 µM
- TGI (NCI/ADR-RES ovarian): > 100 µM
- TGI (EKVX NSCLC): > 100 µM
- TGI (RXF 393 renal): > 100 µM
- TGI (SW-620 colon): > 100 µM
- TGI (U251 CNS): > 100 µM
- TGI (HT29 colon): > 100 µM
- TGI (HOP-92 NSCLC): > 100 µM

Structure (SMILES): CC1(C)Oc2ccc3c(=O)c4ccccc4oc3c2C1C(=O)O (centres undefined)
- TGI (NCI-H226 lung): > 100 µM
- TGI (M14 melanoma): > 100 µM
- TGI (T-47D breast): > 100 µM
- TGI (NCI/ADR-RES ovarian): > 100 µM
- TGI (EKVX NSCLC): > 100 µM
- TGI (RXF 393 renal): > 100 µM
- TGI (U251 CNS): > 100 µM
- TGI (HT29 colon): > 100 µM
